Patent US20250035641A1, “COMPOSITIONS AND METHODS RELATED TO PROTEIN LABELING” (The Chinese University of Hong Kong, priority 2023, published 2025)

What was measured:
Format in all cases: cell-based
HTN-BRD4 = target: T1, HTN-BRD4 (Homo sapiens, UniProt O60885); assay: Pulse-chase assay (HTN-BRD4 engagement in cells); details: 5 μM, within 15 mins treatment, HEK293T HTN-BRD4:fOGT 20:1
T1 construct: HaloTag fragment; expressed in transfected cells; host or cells: HEK293T
Description: For HTN-BRD4, as the OGTAC-1 to 3 were designed to be irreversibly linked to it, we developed a pulse-chase assay. […] All of three OGTACs efficiently reached HTN-BRD4, fully occupied the protein within 4 h. OGTAC 1 ranked first among three OGTACs, achieving […] 90% engagement within 15 mins treatment.
1×10^5 HEK293T cells were seeded in each well of 12 well plate. After cells attached, transfection reagents and plasmids were prepared and added in DMEM. After 24 h transfection, media were replaced by fresh warm complete media with DMSO or compounds. After certain time of OGTACs treatment, media in wells were replaced by fresh warm media with 5 μM rhodamine ligand. The cells were incubated in 37° C.′ for 15 mins. Then, media were aspirated and 100 μL IP lysis buffer (Thermo Scientific 87788) supplemented with 20 μM OGA inhibitor (Thiamet G, Bidepharm BD571819) and 100X protease inhibitor (MedChemExpress. HY-K0010) (referred as complete IP lysis buffer in the later paragraph) was added to each well. The lysate was incubated on ice for 20 min, spun down at 14,000 RPM at 4° C. for 15 mins, and the supernatant were collected for bicinchoninic acid (BCA) assay and normalized to a final 2 mg/mL. […] After running, in gel fluorescence at rhodamine channel (545/575 nm) was analysed by Bio-Rad ChemiDoc MP Imaging System. […]

HTN-EZH2 = assay: O-GlcNAc inducing effects on HTN-EZH2; details: HTN-EZH2:fOGT=1:0.01
Source text: FIG. 13: Evaluation of O-GlcNAc inducing effects of OGTAC-1/2/3 on HTN-EZH2 and dose-dependent effect of OGTAC-1 on HTN-EZH2. In the treatment group, transfection ratio is HTN-EZH2:fOGT:=1:0.01.
As there are >20,000 commercially available plasmids for HaloTag-fused human proteins,46 OGTACs can be rapidly tested in a wide range of POIs, enabling time- and dose-dependent manipulation of their specific O-GlcNAcylation level.

HTN-CK2α = HTN-CK2α (Homo sapiens, UniProt P68400); assay: Chemoenzymatic labelling and mass-shift assay, HTN-CK2α; parameters: expressed in transfected cells; host or cells: HEK293T (A5, A6); HeLa (A8); details: 1 μM
Sequence of HTN-CK2α (P68400 with tags, fused parts or gaps): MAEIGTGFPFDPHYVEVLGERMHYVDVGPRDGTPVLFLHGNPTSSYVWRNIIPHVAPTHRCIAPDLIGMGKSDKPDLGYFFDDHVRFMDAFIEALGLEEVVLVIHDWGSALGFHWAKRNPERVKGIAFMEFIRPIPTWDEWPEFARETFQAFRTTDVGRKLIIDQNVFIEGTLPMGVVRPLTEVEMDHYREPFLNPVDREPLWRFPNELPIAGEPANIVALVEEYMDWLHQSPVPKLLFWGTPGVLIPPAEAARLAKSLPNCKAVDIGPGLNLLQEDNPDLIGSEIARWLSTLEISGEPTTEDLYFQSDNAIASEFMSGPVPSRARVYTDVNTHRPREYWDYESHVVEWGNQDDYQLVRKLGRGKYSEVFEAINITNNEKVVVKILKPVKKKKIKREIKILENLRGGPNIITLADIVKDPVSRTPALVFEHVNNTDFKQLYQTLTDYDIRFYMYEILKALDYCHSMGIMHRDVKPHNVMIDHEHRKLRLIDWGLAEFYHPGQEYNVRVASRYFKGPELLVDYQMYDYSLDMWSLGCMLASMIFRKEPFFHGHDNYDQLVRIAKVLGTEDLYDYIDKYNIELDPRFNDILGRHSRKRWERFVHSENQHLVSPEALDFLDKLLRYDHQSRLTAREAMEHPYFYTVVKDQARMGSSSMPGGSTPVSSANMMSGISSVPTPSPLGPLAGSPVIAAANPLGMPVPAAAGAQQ
Sequence of HTN-CK2α (P62942+O15294 fused P62942:F37V partner): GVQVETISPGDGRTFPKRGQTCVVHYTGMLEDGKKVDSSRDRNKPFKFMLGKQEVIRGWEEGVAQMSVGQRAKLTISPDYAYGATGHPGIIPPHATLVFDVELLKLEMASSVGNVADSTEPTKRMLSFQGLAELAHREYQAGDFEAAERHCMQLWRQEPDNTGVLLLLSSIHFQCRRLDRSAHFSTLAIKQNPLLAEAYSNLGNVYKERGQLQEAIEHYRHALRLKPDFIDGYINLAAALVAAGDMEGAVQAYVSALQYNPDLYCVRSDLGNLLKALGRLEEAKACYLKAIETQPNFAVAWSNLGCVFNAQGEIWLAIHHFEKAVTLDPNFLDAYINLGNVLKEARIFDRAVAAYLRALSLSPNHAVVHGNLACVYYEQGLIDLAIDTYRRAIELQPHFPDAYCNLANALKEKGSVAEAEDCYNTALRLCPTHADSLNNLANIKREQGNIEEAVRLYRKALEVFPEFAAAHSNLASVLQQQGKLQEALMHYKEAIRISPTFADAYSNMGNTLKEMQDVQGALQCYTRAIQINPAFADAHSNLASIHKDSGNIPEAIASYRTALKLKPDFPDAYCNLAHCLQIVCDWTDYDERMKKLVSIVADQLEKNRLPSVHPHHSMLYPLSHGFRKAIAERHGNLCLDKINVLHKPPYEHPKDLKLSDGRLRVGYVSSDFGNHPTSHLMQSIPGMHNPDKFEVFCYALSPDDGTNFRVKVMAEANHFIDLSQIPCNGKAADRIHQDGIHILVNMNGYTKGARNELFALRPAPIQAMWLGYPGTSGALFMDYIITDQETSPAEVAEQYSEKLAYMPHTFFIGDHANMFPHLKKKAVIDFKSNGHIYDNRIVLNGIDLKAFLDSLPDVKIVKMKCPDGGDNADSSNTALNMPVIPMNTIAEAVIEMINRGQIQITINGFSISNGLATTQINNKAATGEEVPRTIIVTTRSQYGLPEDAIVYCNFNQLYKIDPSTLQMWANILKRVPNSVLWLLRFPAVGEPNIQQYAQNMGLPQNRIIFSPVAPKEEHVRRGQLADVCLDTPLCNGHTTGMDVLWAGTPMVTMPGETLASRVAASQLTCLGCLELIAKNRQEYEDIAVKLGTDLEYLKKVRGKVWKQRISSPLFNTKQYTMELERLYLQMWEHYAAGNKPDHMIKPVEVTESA
Source text: Ck2α is a well-studied OGT substrate.^17,25 Its Ser347 is conservatively O-GlcNAcylated and this modification was reported to affect its kinase activity.^16,17 We first co-expressed HTN-Ck2α and fOGT in HEK293T cells at different ratio and found the basal O-GlcNAcylation level of HTN-Ck2α was higher than what we detected in the case of HTN-BRD4. Therefore, a lower ratio of fOGT expression (1:100) was selected for the assessment of OGTAC potency (FIG. 9). […] The induction of specific O-GlcNAcylation on HTN-Ck2α was further confirmed by mass-shift assay. […] To validate the direct binding to both fOGT and HTN-Ck2α is critical, we exploited AP 1867 and rhodamine ligand, which bind to fOGT and HTN-Ck2α respectively, to co-treat with OGTAC-1.
For each chemoenzymatic labelling reaction. 2×10^5 HEK293T cells were seed to each well of 6 well plate. After cells attached, transfection reagents and plasmids were prepared and added in DMEM. After 24 h transfection, media were replaced by fresh warm complete media with DMSO or probes. […] The supernatant of lysate was then quantified by bicinchoninic acid (BCA) assay and normalized to 2 mg/mL with 1% SDS in buffer. […]

Compound: CC[C@H](C(=O)N1CCCC[C@H]1C(=O)O[C@H](CCc1ccc(OC)c(OC)c1)c1cccc(OCC(=O)NCCOCCOCCCCCCCl)c1)c1cc(OC)c(OC)c(OC)c1 [OGTAC-1, (R)-1-(3-(2-((2-(2-((6-chlorohexyl)oxy)ethoxy)ethyl)amino)-2-oxoethoxy)phenyl)-3-(3,4-dimethoxyphenyl)propyl (S)-1-((S)-2-(3,4,5-trimethoxyphenyl)butanoyl) piperidine-2-carboxylate]
- engagement of HTN-BRD4 (HTN-BRD4): 90%
- O-GlcNAcylation-inducing effect on HTN-EZH2 (HTN-EZH2): highest O-GlcNAcylation-inducing effects among the three OGTACs
- HTN-CK2α O-GlcNAcylation in mass-shift assay (HTN-CK2α): increased HTN-CK2α O-GlcNAcylation
